Test results reported in patent US20070156042A1, “Medical device system and method for tracking and visualizing a medical device system under MR guidance” (priority 2005, published 2007).

Experiment: Diffusion of a fluorescent probe in swollen gelatin gel by FRAP
Type: physicochemical
Conditions: coating thickness 60 μm, diffusion coefficient 9×10−12 m2s−1
Excerpt: To assess the stability of DTPA[Gd(III)] in the gelatin coating, the diffusion of a fluorescence probe in gelatin was studied by the technique of fluorescence recovery after photobleaching (FRAP). The instrument and data analysis scheme are described in Kim, S. H. and Yu, H., J. Phys. Chem. 1992, 96, 4034, which is hereby fully incorporated by reference. Fluorescein was used as the fluorescence probe due, in part, to its molecular size being roughly the same as that of DTPA[Gd(III)]. The focus of the study was to examine the possible retardation effects of gelatin concentration and cross-link density on the diffusion, which was determined at room temperature, i.e., below the gel point of gelatin. The diffusion of fluorescein probe slows down with the increase of gelatin concentration. The diffusion coefficient decreases from 1.5×10−10 to 9×10−12 m2s−1 when the concentration of gelatin increases from 9% to 40%. […] Accordingly, the probe diffusion is more likely controlled by the concentration of gelatin rather than the cross-link density. On the other hand, the cross-link density may determine the swelling ratio of gelatin, i.e., the concentration of gelatin in aqueous solution. […]

time to diffuse out of the gelatin coating: about 67 seconds
SMILES: O=C(O)CN(CCN(CC(=O)O)CC(=O)O)CCN(CC(=O)O)CC(=O)O [DTPA, diethylenetriaminepentaacetic acid]
